Reference: the NIST ThermoML archive (doi:10.1021/je8002223)
± gives the expanded uncertainty stated by the source.

Columns and labels:
[1] = DTA
[2] = Molar enthalpy of transition or fusion

In the case of [Cl][Ce]([Cl])[Cl] [cerium trichloride], the Normal melting temperature ([1]; Crystal) is reported as 813 ± 2 °C and the “Molar enthalpy of transition or fusion” value ([2]; Crystal) is reported as 13.3 ± 1.43 kcal/mol.

With [Cl-].[Cs+] [cesium chloride] the Triple point temperature ([1]; Crystal 1) was 918 ± 2 K, the Triple point temperature ([1]; Crystal 2) was 743 ± 2 K and the “Molar enthalpy of transition or fusion” value ([2]; Crystal 1) was 4.85 ± 0.574 kcal/mol. The “Molar enthalpy of transition or fusion” value ([2]; Crystal 2) was 0.908 ± 0.191 kcal/mol.
